Experimental data: patent publication US20260199483A1 (Bright Angel Therapeutics Inc., priority 2022, published 2026)
Converted amounts (≈) assume the structure as drawn.

target: T1, purified recombinant Yck2 (Candida albicans, UniProt A0A1D8PKB4); experiment: HotSpot kinase assay; format: biochemical, C. albicans; conditions: not given
T1 construct: Yck2 residues 37-345 were PCR amplified from C. albicans genomic DNA; His6 (N); TEV protease site (N); made in house; host or cells: E. coli BL21(DE3)-Gold
T1 sequence (A0A1D8PKB4 entry or part of it): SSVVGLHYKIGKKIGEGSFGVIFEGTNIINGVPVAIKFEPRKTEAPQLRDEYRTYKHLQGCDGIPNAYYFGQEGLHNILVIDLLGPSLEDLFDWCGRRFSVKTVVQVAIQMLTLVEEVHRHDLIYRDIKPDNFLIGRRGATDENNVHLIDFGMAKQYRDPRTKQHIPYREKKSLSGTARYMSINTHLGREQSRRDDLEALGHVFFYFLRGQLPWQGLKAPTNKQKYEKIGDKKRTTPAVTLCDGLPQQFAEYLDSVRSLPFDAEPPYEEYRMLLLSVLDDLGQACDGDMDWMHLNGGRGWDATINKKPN
Procedure: IC50s were determined using the in vitro HotSpot kinase assay (purified enzymes, ^33P-ATP, an appropriate substrate and 1 μM ATP). For enzyme inhibition assays, compounds were tested in range of ten concentrations from 10 uM to 0.0005 uM using purified recombinant Yck2. Reaction conditions were 1 uM ATP, one hour incubation with inhibitor, and kinase activity detected using 33-ATP phosphorylation of an appropriately selected peptide substrate.
Yck2 residues 37-345 were PCR amplified from C. albicans genomic DNA and subcloned into the vector pMCSG53, which codes for a N-terminal His6 tag, TEV protease site, followed by the Yck2 protein. E. coli BL21(DE3)-Gold competent cells were transformed with this plasmid and the Yck2 protein was purified using methodology previously described (Stogios et al., ACS Chem. Biol. 13, 1322-1332 (2018)).

| Structure (SMILES) | IC50 |
| --- | --- |
| Nc1nccc(-c2c(-c3ccc(F)cc3)ncn2C2CCN(C[C@](O)(Cn3cncn3)c3ccc(F)cc3F)CC2)n1 (single isomer, unassigned) [Compound I-33] | 12.3 nM |
| Cn1cc(-c2ccnc3c2C(=O)N(CCC2CCN(C[C@](O)(Cn4cncn4)c4ccc(F)cc4F)CC2)C3)c(-c2ccc(F)cc2)n1 (single isomer, unassigned) [Compound I-248] | 4.69 nM |
| Cn1cc(-c2ccnc3c2C(=O)N(CC(O)(Cn2ccnc2)c2ccc(F)cc2F)C3)c(-c2ccc(F)cc2)n1 (stereo not drawn) [Compound I-1, 6-(2-(2,4-difluorophenyl)-2-hydroxy-3-(1H-imidazol-1-yl)propyl)-4-(3-(4-fluorophenyl)-1-methyl-1H-pyrazol-4-yl)-6,7-dihydro-5H-pyrrolo[3,4-b]pyridin-5-one] | 46.3 nM |
| CN1Cc2nccc(-c3cn(CCC(O)(Cn4cncn4)c4ccc(F)cc4F)nc3-c3ccc(F)cc3)c2C1=O (stereo not drawn) [Compound I-2, 4-(1-(3-(2,4-difluorophenyl)-3-hydroxy-4-(1H-1,2,4-triazol-1-yl)butyl)-3-(4-fluorophenyl)-1H-pyrazol-4-yl)-6-methyl-6,7-dihydro-5H-pyrrolo[3,4-b]pyridin-5-one] | 107 nM |
| Cn1cc(-c2ccncc2CNCCC(O)(Cn2cncn2)c2ccc(F)cc2F)c(-c2ccc(F)cc2)n1 (stereo not drawn) [Compound I-3, 2-(2,4-difluorophenyl)-4-(((4-(3-(4-fluorophenyl)-1-methyl-1H-pyrazol-4-yl)pyridin-3-yl)methyl)amino)-1-(1H-1,2,4-triazol-1-yl)butan-2-ol] | 179 nM |
| Cn1cc(-c2ccncc2CNC2CCN(CC(O)(Cn3cncn3)c3ccc(F)cc3F)CC2)c(-c2ccc(F)cc2)n1 (stereo not drawn) [Compound I-4, 2-(2,4-difluorophenyl)-1-(4-(((4-(3-(4-fluorophenyl)-1-methyl-1H-pyrazol-4-yl)pyridin-3-yl)methyl)amino)piperidin-1-yl)-3-(1H-1,2,4-triazol-1-yl)propan-2-ol] | 178 nM |
| Cn1cc(-c2ccncc2CNCC(O)(Cn2cncn2)c2ccc(F)cc2F)c(-c2ccc(F)cc2)n1 (stereo not drawn) [Compound I-5, 2-(2,4-difluorophenyl)-1-(((4-(3-(4-fluorophenyl)-1-methyl-1H-pyrazol-4-yl)pyridin-3-yl)methyl)amino)-3-(1H-1,2,4-triazol-1-yl)propan-2-ol] | 335 nM |
| Cn1cc(-c2ccnc3c2C(=O)N(CC(O)(Cn2cncn2)c2ccc(F)cc2F)C3)c(-c2ccc(F)cc2)n1 (stereo not drawn) [Compound I-6, 6-(2-(2,4-difluorophenyl)-2-hydroxy-3-(1H-1,2,4-triazol-1-yl)propyl)-4-(3-(4-fluorophenyl)-1-methyl-1H-pyrazol-4-yl)-6,7-dihydro-5H-pyrrolo[3,4-b]pyridin-5-one] | 72.7 nM |
| Nc1nccc(-c2c(-c3ccc(F)cc3)ncn2C2CCN(CC(O)(Cn3ccnn3)c3ccc(F)cc3F)CC2)n1 (stereo not drawn) [Compound I-35, 1-(4-(5-(2-aminopyrimidin-4-yl)-4-(4-fluorophenyl)-1H-imidazol-1-yl)piperidin-1-yl)-2-(2,4-difluorophenyl)-3-(1H-1,2,3-triazol-1-yl)propan-2-ol] | 6.8 nM |
| Nc1nccc(-c2c(-c3ccc(F)cc3)ncn2C2CCN(CC[C@](O)(Cn3cncn3)c3ccc(F)cc3F)CC2)n1 [Compound I-53, (R)-4-(4-(5-(2-aminopyrimidin-4-yl)-4-(4-fluorophenyl)-1H-imidazol-1-yl)piperidin-1-yl)-2-(2,4-difluorophenyl)-1-(1H-1,2,4-triazol-1-yl)butan-2-ol] | 9.52 nM |
| Nc1nccc(-c2c(-c3ccc(F)cc3)ncn2C2CCN(CC[C@@](O)(Cn3cncn3)c3ccc(F)cc3F)CC2)n1 [Compound I-55, (S)-4-(4-(5-(2-aminopyrimidin-4-yl)-4-(4-fluorophenyl)-1H-imidazol-1-yl)piperidin-1-yl)-2-(2,4-difluorophenyl)-1-(1H-1,2,4-triazol-1-yl)butan-2-ol] | 8.41 nM |
| Nc1nccc(-c2c(-c3ccc(F)cc3)ncn2C2CCN(CC(=O)NCC(O)(Cn3cncn3)c3ccc(F)cc3F)CC2)n1 (stereo not drawn) [Compound I-71, 2-(4-(5-(2-aminopyrimidin-4-yl)-4-(4-fluorophenyl)-1H-imidazol-1-yl)piperidin-1-yl)-N-(2-(2,4-difluorophenyl)-2-hydroxy-3-(1H-1,2,4-triazol-1-yl)propyl)acetamide] | 9.33 nM |
| Nc1nccc(-c2c(-c3ccc(F)cc3)ncn2C2CCN(C(=O)CCNCC(O)(Cn3cncn3)c3ccc(F)cc3F)CC2)n1 (stereo not drawn) [Compound I-77, 1-(4-(5-(2-aminopyrimidin-4-yl)-4-(4-fluorophenyl)-1H-imidazol-1-yl)piperidin-1-yl)-3-((2-(2,4-difluorophenyl)-2-hydroxy-3-(1H-1,2,4-triazol-1-yl)propyl)amino)propan-1-one] | 0.4 nM |
| O=C(NCC(O)(Cn1cncn1)c1ccc(F)cc1F)c1cccc2c(-c3ccncc3)c(-c3ccc(F)cc3)nn12 (stereo not drawn) [Compound I-151, N-(2-(2,4-difluorophenyl)-2-hydroxy-3-(1H-1,2,4-triazol-1-yl)propyl)-2-(4-fluorophenyl)-3-(pyridin-4-yl)pyrazolo[1,5-a]pyridine-7-carboxamide] | 765 nM |
| OC(CNCc1ccc2c(-c3ccncc3)c(-c3ccc(F)cc3)nn2c1)(Cn1cncn1)c1ccc(F)cc1F (stereo not drawn) [Compound I-152, 2-(2,4-difluorophenyl)-1-(((2-(4-fluorophenyl)-3-(pyridin-4-yl)pyrazolo[1,5-a]pyridin-6-yl)methyl)amino)-3-(1H-1,2,4-triazol-1-yl)propan-2-ol] | 3.37 nM |
| Cn1cc(-c2ccncc2COCCC(O)(Cn2cncn2)c2ccc(F)cc2F)c(-c2ccc(F)cc2)n1 (stereo not drawn) [Compound I-233, 2-(2,4-difluorophenyl)-4-((4-(3-(4-fluorophenyl)-1-methyl-1H-pyrazol-4-yl)pyridin-3-yl)methoxy)-1-(1H-1,2,4-triazol-1-yl)butan-2-ol] | 65.9 nM |
| Nc1nccc(-c2c(-c3ccc(F)cc3)ncn2C2CCN(CCC(=O)NC3CCN(CC(O)(Cn4cncn4)c4ccc(F)cc4F)CC3)CC2)n1 (stereo not drawn) [Compound I-234, 3-(4-(5-(2-aminopyrimidin-4-yl)-4-(4-fluorophenyl)-1H-imidazol-1-yl)piperidin-1-yl)-N-(1-(2-(2,4-difluorophenyl)-2-hydroxy-3-(1H-1,2,4-triazol-1-yl)propyl)piperidin-4-yl)propanamide] | 8.12 nM |
| Cn1cc(-c2ccncc2COCC[C@](O)(Cn2cncn2)c2ccc(F)cc2F)c(-c2ccc(F)cc2)n1 [Compound I-235, (R)-2-(2,4-difluorophenyl)-4-((4-(3-(4-fluorophenyl)-1-methyl-1H-pyrazol-4-yl)pyridin-3-yl)methoxy)-1-(1H-1,2,4-triazol-1-yl)butan-2-ol] | 107 nM |
| Cn1cc(-c2ccnc3c2C(=O)N(CC2CCN(C[C@@](O)(Cn4cncn4)c4ccc(F)cc4F)CC2)C3)c(-c2ccc(F)cc2)n1 [Compound I-237, (R)-6-((1-(2-(2,4-difluorophenyl)-2-hydroxy-3-(1H-1,2,4-triazol-1-yl)propyl)piperidin-4-yl)methyl)-4-(3-(4-fluorophenyl)-1-methyl-1H-pyrazol-4-yl)-6,7-dihydro-5H-pyrrolo[3,4-b]pyridin-5-one] | 1.14 nM |
| O[C@](CNCc1ccc2c(-c3ccncc3)c(-c3ccc(F)cc3)nn2c1)(Cn1cncn1)c1ccc(F)cc1F [Compound I-252, (R)-2-(2,4-difluorophenyl)-1-(((2-(4-fluorophenyl)-3-(pyridin-4-yl)pyrazolo[1,5-a]pyridin-6-yl)methyl)amino)-3-(1H-1,2,4-triazol-1-yl)propan-2-ol] | 2.07 nM |
| OC(CN1CCC(NCc2ccc3c(-c4ccncc4)c(-c4ccc(F)cc4)nn3c2)CC1)(Cn1cncn1)c1ccc(F)cc1F (stereo not drawn) [Compound I-254, 2-(2,4-difluorophenyl)-1-(4-(((2-(4-fluorophenyl)-3-(pyridin-4-yl)pyrazolo[1,5-a]pyridin-6-yl)methyl)amino)piperidin-1-yl)-3-(1H-1,2,4-triazol-1-yl)propan-2-ol] | 3.09 nM |

test system: CaCi2; experiment: Antifungal sensitivity testing (broth microdilution MIC); format: cell-based; conditions: CaCi2, 96-well broth microdilution, compounds in DMSO
Procedure: Minimum inhibitory concentrations (MICs) were determined in flat bottom, 96-well plate format using a modified broth microdilution protocol as previously described (Singh et al., PLoS Pathog. 5, e1000532 (2009); LaFayette et al., PLoS Pathog. 6, 79-80 (2010)). Compounds were formulated in dimethyl sulfoxide (DMSO, Sigma-Aldrich Co.). Each compound was tested in duplicate in at least two independent experiments.

| Structure (SMILES) | MIC50 |
| --- | --- |
| Nc1nccc(-c2c(-c3ccc(F)cc3)ncn2C2CCN(CC(O)(Cn3cncn3)c3ccc(F)cc3F)CC2)n1 (stereo not drawn) [Compound I-32, 1-(4-(5-(2-aminopyrimidin-4-yl)-4-(4-fluorophenyl)-1H-imidazol-1-yl)piperidin-1-yl)-2-(2,4-difluorophenyl)-3-(1H-1,2,4-triazol-1-yl)propan-2-ol] | > 50 µM |
| [2H]C([2H])(NCC(O)(Cn1cncn1)c1ccc(F)cc1F)c1ccc2c(-c3ccncc3)c(-c3ccc(F)cc3)nn2c1 (stereo not drawn) [Compound I-261, 2-(2,4-difluorophenyl)-1-(((2-(4-fluorophenyl)-3-(pyridin-4-yl)pyrazolo[1,5-a]pyridin-6-yl)methyl-d2)amino)-3-(1H-1,2,4-triazol-1-yl)propan-2-ol] | 0.195 µM (≈ 0.109 µg/mL) |
| OC(Cn1cncn1)(c1ccc(F)cc1F)C(F)(F)c1ccc(-c2ccc(CNCc3ccc4c(-c5ccncc5)c(-c5ccc(F)cc5)nn4c3)cc2)cn1 (stereo not drawn) [Compound I-262, 2-(2,4-difluorophenyl)-1,1-difluoro-1-(5-(4-((((2-(4-fluorophenyl)-3-(pyridin-4-yl)pyrazolo[1,5-a]pyridin-6-yl)methyl)amino)methyl)phenyl)pyridin-2-yl)-3-(1H-1,2,4-triazol-1-yl)propan-2-ol] | 0.293 µM (≈ 0.222 µg/mL) |
